# Assay results taken from US10689429B2, “Double-acylated GLP-1 compounds” (Novo Nordisk A/S, priority 2014, dated 2020).
# Where two headings read alike, the source gives them in different places. *1 amine or outer side, *2 acyl side, *3 side chain or, on linkers, in order; H or OH if unused. Where a SMILES comes first, the peptide text is derived from it. Where no end group is shown, it is not given here. Side-chain parts run from the residue outwards. [ ]: non-standard residue; d: D form. The star is where a group is joined. Undecanoyl(11-OPh(4-COOH)) = O=C(O)c1ccc(OCCCCCCCCCCC(=O)*)cc1; γGlu = O=C(O)[C@H](CCC(=O)[*:2])N[*:1]; AEEA = NCCOCCOCC(=O)O; Aib = CC(C)(N)C(=O)O
# Columns and labels:
# human GLP-1 receptor [1] = target: T1, human GLP-1 receptor (Homo sapiens, UniProt P43220); experiment: In vitro potency, CRE luciferase reporter gene assay in BHK cells expressing the human GLP-1 receptor; type: cell-based; settings: average of duplicates;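 note: firefly luciferase luminescence read after 3 h incubation at 37 °C, compounds tested in an eight-point series from 0.01 pM to 100 nM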
# T1 construct: expressed in transfected cells; host or cells: membranes from BHK cells, parent line BHKTS13, clone FCW467-12A
# human GLP-1 receptor [2] = target: human GLP-1 receptor (human, UniProt P43220)
# [3] = EC50/pM (1% HSA), 1% HSA final assay concentration
# T1 sequence (P43220 24-463): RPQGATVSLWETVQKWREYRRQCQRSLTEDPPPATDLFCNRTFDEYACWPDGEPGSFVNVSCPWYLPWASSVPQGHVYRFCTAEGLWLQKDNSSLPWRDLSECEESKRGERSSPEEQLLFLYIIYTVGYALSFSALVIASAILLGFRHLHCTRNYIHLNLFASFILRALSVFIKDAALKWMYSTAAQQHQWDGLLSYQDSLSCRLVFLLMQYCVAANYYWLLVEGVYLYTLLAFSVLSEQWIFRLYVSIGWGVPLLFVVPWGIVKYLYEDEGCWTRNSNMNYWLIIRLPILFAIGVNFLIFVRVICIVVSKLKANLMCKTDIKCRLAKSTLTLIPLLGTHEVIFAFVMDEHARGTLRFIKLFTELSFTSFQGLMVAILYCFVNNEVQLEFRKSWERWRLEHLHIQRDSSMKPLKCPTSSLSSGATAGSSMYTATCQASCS
# Chain of human GLP-1 receptor (human, UniProt P43220) (P43220 24-463): as above
"EC50 (human GLP-1 receptor [1]; 0% HSA, read-out: EC50/pM (0% HSA)) [pM]",EC50/pM (0% HSA) (human GLP-1 receptor [2]) [pM],EC50/pM (1% HSA) (human GLP-1 receptor [2]) [pM],Molecule,"EC50 (human GLP-1 receptor [1]; EC50/pM (0% HSA), 0% HSA) [pM]",EC50 (human GLP-1 receptor [1]; [3]) [pM]
,,,"CC[C@H](C)[C@H](NC(=O)[C@H](Cc1ccccc1)NC(=O)[C@H](CCC(=O)O)NC(=O)[C@H](CCCNC(=N)N)NC(=O)[C@H](C)NC(=O)[C@H](C)NC(=O)[C@H](CCC(N)=O)NC(=O)[C@H](CCC(=O)O)NC(=O)[C@H](CCC(=O)O)NC(=O)[C@H](CC(C)C)NC(=O)[C@H](Cc1ccc(O)cc1)NC(=O)[C@H](CO)NC(=O)[C@H](CO)NC(=O)[C@@H](NC(=O)[C@H](CC(=O)O)NC(=O)[C@H](CO)NC(=O)[C@@H](NC(=O)[C@H](Cc1ccccc1)NC(=O)[C@@H](NC(=O)CNC(=O)[C@H](CCC(=O)O)NC(=O)CNC(=O)[C@@H](N)Cc1c[nH]cn1)[C@@H](C)O)[C@@H](C)O)C(C)C)C(=O)N[C@@H](C)C(=O)N[C@@H](Cc1c[nH]c2ccccc12)C(=O)N[C@@H](CC(C)C)C(=O)N[C@H](C(=O)N[C@@H](CCCNC(=N)N)C(=O)NCC(=O)N[C@@H](CCCCNC(=O)COCCOCCNC(=O)COCCOCCNC(=O)CC[C@H](NC(=O)CCCCCCCCCCOc1ccc(C(=O)O)cc1)C(=O)O)C(=O)N[C@@H](CCCCNC(=O)COCCOCCNC(=O)COCCOCCNC(=O)CC[C@H](NC(=O)CCCCCCCCCCOc1ccc(C(=O)O)cc1)C(=O)O)C(=O)O)C(C)C [Example 17, N{Epsilon-36}-[2-[2-[2-[[2-[2-[2-[[(4S)-4-carboxy-4-[11-(4-carboxyphenoxy)undecanoylamino]butanoyl]amino]ethoxy]ethoxy]acetyl]amino]ethoxy]ethoxy]acetyl], N{Epsilon-37}-[2-[2-[2-[[2-[2-[2-[[(4S)-4-carboxy-4-[11-(4-carboxyphenoxy)undecanoylamino]butanoyl]amino]ethoxy]ethoxy]acetyl]amino]ethoxy]ethoxy]acetyl]-[Gly8,Glu22,Arg26,Arg34,Lys36,Lys37]-GLP-1-(7-37)-peptide] (H-HGEGTFTSDVSSYLEEQAAREFIAWLVRGK([AEEA-AEEA-γGlu-Undecanoyl(11-OPh(4-COOH))])K([AEEA-AEEA-γGlu-Undecanoyl(11-OPh(4-COOH))])-OH; N-terminus and C-terminus assumed)",14,199
,,,CC[C@H](C)[C@H](NC(=O)[C@H](Cc1ccccc1)NC(=O)[C@H](CCC(=O)O)NC(=O)[C@H](CCCNC(=N)N)NC(=O)[C@H](C)NC(=O)[C@H](C)NC(=O)[C@H](CCC(N)=O)NC(=O)[C@H](CCC(=O)O)NC(=O)[C@H](CCC(=O)O)NC(=O)[C@H](CC(C)C)NC(=O)[C@H](Cc1ccc(O)cc1)NC(=O)[C@H](CO)NC(=O)[C@H](CO)NC(=O)[C@@H](NC(=O)[C@H](CC(=O)O)NC(=O)[C@H](CO)NC(=O)[C@@H](NC(=O)[C@H](Cc1ccccc1)NC(=O)[C@@H](NC(=O)CNC(=O)[C@H](CCC(=O)O)NC(=O)C(C)(C)NC(=O)[C@@H](N)Cc1c[nH]cn1)[C@@H](C)O)[C@@H](C)O)C(C)C)C(=O)N[C@@H](C)C(=O)N[C@@H](Cc1c[nH]c2ccccc12)C(=O)N[C@@H](CC(C)C)C(=O)N[C@H](C(=O)N[C@@H](CCCNC(=N)N)C(=O)NCC(=O)N[C@@H](CCCCNC(=O)COCCOCCNC(=O)COCCOCCNC(=O)CC[C@H](NC(=O)CC[C@H](NC(=O)CCCCCCCCCCOc1ccc(C(=O)O)cc1)C(=O)O)C(=O)O)C(=O)N[C@@H](CCCCNC(=O)COCCOCCNC(=O)COCCOCCNC(=O)CC[C@H](NC(=O)CC[C@H](NC(=O)CCCCCCCCCCOc1ccc(C(=O)O)cc1)C(=O)O)C(=O)O)C(=O)O)C(C)C [Example 18],,29
5.6,,,CC[C@H](C)[C@H](NC(=O)[C@H](Cc1ccccc1)NC(=O)[C@H](CCC(=O)O)NC(=O)[C@H](CCCNC(=N)N)NC(=O)[C@H](C)NC(=O)[C@H](C)NC(=O)[C@H](CCC(N)=O)NC(=O)[C@H](CCC(=O)O)NC(=O)[C@H](CCC(=O)O)NC(=O)[C@H](CC(C)C)NC(=O)[C@H](Cc1ccc(O)cc1)NC(=O)[C@H](CO)NC(=O)[C@H](CO)NC(=O)[C@@H](NC(=O)[C@H](CC(=O)O)NC(=O)[C@H](CO)NC(=O)[C@@H](NC(=O)[C@H](Cc1ccccc1)NC(=O)[C@@H](NC(=O)CNC(=O)[C@H](CCC(=O)O)NC(=O)C(C)(C)NC(=O)[C@@H](N)Cc1c[nH]cn1)[C@@H](C)O)[C@@H](C)O)C(C)C)C(=O)N[C@@H](C)C(=O)N[C@@H](Cc1c[nH]c2ccccc12)C(=O)N[C@@H](CC(C)C)C(=O)N[C@H](C(=O)N[C@@H](CCCNC(=N)N)C(=O)NCC(=O)N[C@@H](CCCCNC(=O)COCCOCCNC(=O)COCCOCCNC(=O)CC[C@H](NC(=O)CC[C@H](NC(=O)CCCCCCCCCCCCC(=O)O)C(=O)O)C(=O)O)C(=O)N[C@@H](CCCCNC(=O)COCCOCCNC(=O)COCCOCCNC(=O)CC[C@H](NC(=O)CC[C@H](NC(=O)CCCCCCCCCCCCC(=O)O)C(=O)O)C(=O)O)C(=O)O)C(C)C [Example 21],,13
,,,CC[C@H](C)[C@H](NC(=O)[C@H](Cc1ccccc1)NC(=O)[C@H](CCC(=O)O)NC(=O)[C@H](CCCNC(=N)N)NC(=O)[C@H](C)NC(=O)[C@H](C)NC(=O)[C@H](CCC(N)=O)NC(=O)[C@H](CCC(=O)O)NC(=O)[C@H](CCC(=O)O)NC(=O)[C@H](CC(C)C)NC(=O)[C@H](Cc1ccc(O)cc1)NC(=O)[C@H](CO)NC(=O)[C@H](CO)NC(=O)[C@@H](NC(=O)[C@H](CC(=O)O)NC(=O)[C@H](CO)NC(=O)[C@@H](NC(=O)[C@H](Cc1ccccc1)NC(=O)[C@@H](NC(=O)CNC(=O)[C@H](CCC(=O)O)NC(=O)C(C)(C)NC(=O)[C@@H](N)Cc1c[nH]cn1)[C@@H](C)O)[C@@H](C)O)C(C)C)C(=O)N[C@@H](C)C(=O)N[C@@H](Cc1c[nH]c2ccccc12)C(=O)N[C@@H](CC(C)C)C(=O)N[C@H](C(=O)N[C@@H](CCCNC(=N)N)C(=O)NCC(=O)N[C@@H](CCCCNC(=O)COCCOCCNC(=O)COCCOCCNC(=O)COCCOCCNC(=O)COCCOCCNC(=O)CC[C@H](NC(=O)CCCCCCCCCOc1cccc(C(=O)O)c1)C(=O)O)C(=O)N[C@@H](CCCCNC(=O)COCCOCCNC(=O)COCCOCCNC(=O)COCCOCCNC(=O)COCCOCCNC(=O)CC[C@H](NC(=O)CCCCCCCCCOc1cccc(C(=O)O)c1)C(=O)O)C(=O)O)C(C)C [Example 22],1.8,7.7
,0.8,29,H[Aib]EGTFTSDVSSYLEEQAAREFIAWLVRGK([AEEA-AEEA-γGlu-γGlu-Undecanoyl(11-OPh(4-COOH))])K([AEEA-AEEA-γGlu-γGlu-Undecanoyl(11-OPh(4-COOH))]) [GLP-1 derivative of Example 18],,
